In patent US20230372365A1, “METHODS OF TREATING FIBROMYALGIA WITH NEUROACTIVE STEROIDS” (priority 2020, published 2023):

How the values were obtained:
[1] = test system: GABAA receptor subtypes; assay: FLIPR calcium flux, all 18 subtypes taken together; type: cell-based; details: 18 subtypes tested
Protocol: (§1) Cells expressing the indicated GABAA receptor subtype were exposed to gamma-aminobutyric acid in the presence of varying concentrations of either CV-10155 or SPNC-019, calcium flux was measured using a fluorometric imaging plate reader (FLIPR), and EC50 values for compounds were determined.
The results further indicate that the isomeric purity of compositions containing compounds of Formula (I) greatly impacts the utility of such compositions as therapeutic agents.

[2] = target: T1, α4β3δ GABAA receptor (Homo sapiens, UniProt O14764+P28472+P48169); assay: FLIPR calcium flux, modulation of GABA response; type: cell-based; set-up: expressed in transfected cells; details: comparison of Example 1 data
T1 sequence (P48169 36-554): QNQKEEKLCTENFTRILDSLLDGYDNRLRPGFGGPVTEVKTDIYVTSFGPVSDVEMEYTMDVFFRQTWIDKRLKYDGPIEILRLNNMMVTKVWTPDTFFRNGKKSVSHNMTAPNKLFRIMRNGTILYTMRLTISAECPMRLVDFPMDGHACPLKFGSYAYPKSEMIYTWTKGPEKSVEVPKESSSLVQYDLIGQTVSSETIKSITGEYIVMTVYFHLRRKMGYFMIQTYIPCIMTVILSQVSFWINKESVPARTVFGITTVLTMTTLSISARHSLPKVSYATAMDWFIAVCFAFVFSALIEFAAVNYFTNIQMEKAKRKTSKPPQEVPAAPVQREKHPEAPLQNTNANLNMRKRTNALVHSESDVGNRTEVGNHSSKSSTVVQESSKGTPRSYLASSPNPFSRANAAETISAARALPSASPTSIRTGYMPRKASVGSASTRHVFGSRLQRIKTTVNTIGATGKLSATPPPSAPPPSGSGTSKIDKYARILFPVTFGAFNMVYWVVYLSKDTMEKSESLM
T1 sequence (P28472 26-473): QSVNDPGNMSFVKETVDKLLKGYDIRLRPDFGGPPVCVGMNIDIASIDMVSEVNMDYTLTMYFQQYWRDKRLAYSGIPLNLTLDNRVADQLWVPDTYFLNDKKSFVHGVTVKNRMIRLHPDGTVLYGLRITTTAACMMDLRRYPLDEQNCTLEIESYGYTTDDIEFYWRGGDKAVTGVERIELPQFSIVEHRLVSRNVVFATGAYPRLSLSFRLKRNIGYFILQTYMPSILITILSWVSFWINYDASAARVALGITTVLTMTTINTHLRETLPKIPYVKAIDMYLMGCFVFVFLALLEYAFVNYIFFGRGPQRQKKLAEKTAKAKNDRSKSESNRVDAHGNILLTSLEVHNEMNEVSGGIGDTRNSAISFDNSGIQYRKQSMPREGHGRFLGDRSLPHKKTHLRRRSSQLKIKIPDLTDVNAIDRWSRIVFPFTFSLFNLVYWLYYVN
T1 sequence (O14764 25-452): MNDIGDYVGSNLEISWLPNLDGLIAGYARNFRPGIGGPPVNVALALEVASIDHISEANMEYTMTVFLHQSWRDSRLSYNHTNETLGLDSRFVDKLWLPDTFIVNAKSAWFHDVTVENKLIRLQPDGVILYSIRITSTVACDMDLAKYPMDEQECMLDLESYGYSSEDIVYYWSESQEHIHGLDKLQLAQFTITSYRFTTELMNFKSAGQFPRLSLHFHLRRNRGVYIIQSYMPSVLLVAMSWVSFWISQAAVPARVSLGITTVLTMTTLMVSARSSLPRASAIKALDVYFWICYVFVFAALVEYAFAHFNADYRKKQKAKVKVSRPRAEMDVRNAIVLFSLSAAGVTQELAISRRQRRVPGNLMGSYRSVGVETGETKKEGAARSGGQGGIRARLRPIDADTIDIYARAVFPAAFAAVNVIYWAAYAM
Protocol: as §1

[3] = target: picrotoxin binding site of GABAA receptors; details: membranes from cortices of rat brains; read-out: IC50 in the TBPS displacement assay; cited from earlier work
[4] = target: T2, α1β2γ2 GABAA receptors (Homo sapiens, UniProt P14867+P18507+P47870); details: 10 μM steroid, GABA 2 μM (EC20), LTK cells; cited from earlier work
T2 construct: expressed in transfected cells; host or cells: LTK cells, stably transfected
T2 sequence (P14867 28-456): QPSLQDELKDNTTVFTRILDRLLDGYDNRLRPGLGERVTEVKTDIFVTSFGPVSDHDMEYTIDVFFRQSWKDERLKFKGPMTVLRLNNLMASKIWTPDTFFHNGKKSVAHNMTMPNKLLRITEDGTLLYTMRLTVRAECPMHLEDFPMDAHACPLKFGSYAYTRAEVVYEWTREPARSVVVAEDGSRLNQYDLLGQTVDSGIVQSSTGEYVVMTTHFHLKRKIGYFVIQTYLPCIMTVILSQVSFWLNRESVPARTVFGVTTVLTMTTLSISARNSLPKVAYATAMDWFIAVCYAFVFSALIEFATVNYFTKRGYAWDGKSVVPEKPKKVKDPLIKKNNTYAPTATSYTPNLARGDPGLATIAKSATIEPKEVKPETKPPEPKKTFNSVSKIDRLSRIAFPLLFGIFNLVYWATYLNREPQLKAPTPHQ
T2 sequence (P47870 25-512 limits assumed): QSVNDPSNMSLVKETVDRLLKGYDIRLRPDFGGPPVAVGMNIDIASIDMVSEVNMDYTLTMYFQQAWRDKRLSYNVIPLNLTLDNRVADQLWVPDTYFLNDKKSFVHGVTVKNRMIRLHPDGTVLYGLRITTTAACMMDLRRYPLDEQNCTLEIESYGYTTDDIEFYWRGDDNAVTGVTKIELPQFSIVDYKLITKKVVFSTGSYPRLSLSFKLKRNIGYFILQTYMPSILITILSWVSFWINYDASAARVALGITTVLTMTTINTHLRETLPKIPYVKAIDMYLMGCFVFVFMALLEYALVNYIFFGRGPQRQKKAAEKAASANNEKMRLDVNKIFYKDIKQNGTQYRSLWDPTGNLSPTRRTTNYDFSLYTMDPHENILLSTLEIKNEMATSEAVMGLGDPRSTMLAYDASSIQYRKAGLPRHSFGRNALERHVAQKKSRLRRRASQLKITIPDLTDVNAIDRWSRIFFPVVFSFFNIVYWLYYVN
T2 sequence (P18507 40-475): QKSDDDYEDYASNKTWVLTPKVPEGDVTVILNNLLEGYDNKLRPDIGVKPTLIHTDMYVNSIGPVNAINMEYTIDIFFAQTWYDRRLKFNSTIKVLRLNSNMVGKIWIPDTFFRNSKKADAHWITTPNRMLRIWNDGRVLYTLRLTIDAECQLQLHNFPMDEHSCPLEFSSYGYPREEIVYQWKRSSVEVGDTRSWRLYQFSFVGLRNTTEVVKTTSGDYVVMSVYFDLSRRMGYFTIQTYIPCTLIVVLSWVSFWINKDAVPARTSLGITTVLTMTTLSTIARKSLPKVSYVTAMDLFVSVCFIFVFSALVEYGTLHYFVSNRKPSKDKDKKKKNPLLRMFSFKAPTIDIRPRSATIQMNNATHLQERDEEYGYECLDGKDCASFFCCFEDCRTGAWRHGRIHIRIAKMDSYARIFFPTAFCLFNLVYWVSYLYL

[5] = target: T1, α4β3δ GABAA receptor; set-up: expressed in transfected cells; host or cells: CHO cells, transiently transfected; details: 10 μM steroid, GABA 2 μM (EC20), CHO cells; cited from earlier work

Compound	modulating activity across the GABAA receptor subtypes tested [1]	IC50 [3] [µM]	also measured
C[C@@]1(O)CC[C@@]2(C)[C@@H](CC[C@@H]3[C@@H]2CC[C@]2(C)[C@@H](C(=O)Cn4cc(C#N)cn4)CC[C@@H]32)C1 [CV-10155, 1-[2-[(3R,5S,8R,9S,10S,13S,14S,17S)-3-hydroxy-3,10,13-trimethyl-1,2,4,5,6,7,8,9,11,12,14,15,16,17-tetradecahydrocyclopenta[a]phenanthren-17-yl]-2-oxoethyl]pyrazole-4-carbonitrile]	some level of positive allosteric modulating activity in all of the GABAA receptor subtypes tested	–	preferential modulation of α4β3δ compared to α1β2γ2 GABAA receptors [2]: preferentially modulate; preferential modulation of α4β3δ compared to α1β2γ2 GABAA receptors ([2]; listed as Formula (I)): substantially more active
C[C@@]1(O)CC[C@@]2(C)[C@H](CC[C@@H]3[C@@H]2CC[C@]2(C)[C@@H](C(=O)Cn4cc(C#N)cn4)CC[C@@H]32)C1 [Compound 10]	–	< 0.01	–
C[C@@]1(O)CC[C@@]2(C)[C@@H](CC[C@@H]3[C@@H]2CC[C@]2(C)[C@@H](C(=O)Cn4ccc(C#N)n4)CC[C@@H]32)C1 [Compound 121]	–	0.01 to 0.05	efficacy (relative potentiation of GABA-mediated conductance) [4]: > 500%; efficacy (relative potentiation of GABA-mediated conductance) [5]: > 500%
C[C@]1(O)CC[C@@]2(C)[C@@H](CC[C@@H]3[C@@H]2CC[C@]2(C)[C@@H](C(=O)Cn4cc(C#N)cn4)CC[C@@H]32)C1 [SPNC-019]	no modulating activity in 15 of the 18 GABAA receptor subtypes tested	–	–
